Data taken from patent publication US8685997B2, “Camptothecin derivatives and their use” (Shanghai Institute of Materia Medica, Chinese Academy of …, priority 2006, dated 2014).
Where two headings read alike, the source gives them in different places.

Experiments:
A549 = assay: SRB protein staining tumor cell proliferation assay; type: cell-based; details: read-out: IC50(mean ± SD)
Text: (§1) 1. Sulfonyl rhodamine B (SRB) protein staining assays were used to detect the inhibition of tumor cell proliferation of the compound.

BEL-7402 = assay: as above; type: cell-based; details: read-out: IC50(mean ± SD)
Text: as §1

HCT-15 = assay: as above; type: cell-based; details: read-out: IC50(mean ± SD)
Text: as §1

HL-60 = assay: as above; type: cell-based; details: read-out: IC50(mean ± SD)
Text: as §1

HO-8910 = assay: as above; type: cell-based; details: read-out: IC50(mean ± SD)
Text: as §1

MCF-7 = assay: as above; type: cell-based
Text: as §1

MDA-MB-435 = assay: as above; type: cell-based; details: read-out: IC50(mean ± SD)
Text: as §1

MDA-MB-468 = assay: as above; type: cell-based; details: read-out: IC50(mean ± SD)
Text: as §1

MKN-28 = assay: as above; type: cell-based; details: read-out: IC50(mean ± SD)
Text: as §1

NCI-H23 = assay: as above; type: cell-based; details: read-out: IC50(mean ± SD)
Text: as §1

SGC-7901 = assay: as above; type: cell-based; details: read-out: IC50(mean ± SD)
Text: as §1

SMMC-7721 = assay: as above; type: cell-based; details: read-out: IC50(mean ± SD)
Text: as §1

HCT-116 = assay: as above; type: cell-based, human; details: read-out: IC50(mean ± SD)
Text: as §1

[1] = tested on: thirteen tumor cell lines; assay: SRB proliferation assay, panel of thirteen tumor cell lines; type: cell-based; details: mean over thirteen tumor cell lines
Text: as §1

[2] = tested on: human lung cancer SPC-A4 xenografts; assay: Human lung cancer SPC-A4 xenografts in nude mice; details: for Body weight (g) At the beginning / Body weight (g) At the end / RTV / T/C (%) / TV (mm^3) d0 / TV (mm^3) d20: q3w × 3, i.v.
[3] = tested on: human rectal cancer HCT-116 xenografts; assay: Human rectal cancer HCT-116 xenografts in nude mice; details: for Body weight (g) At the beginning / Body weight (g) At the end / RTV / T/C (%) / TV (mm^3) d0 / TV (mm^3) d21: q3w × 3, i.v.
K562 cell line = assay: Anti-multidrug resistance evaluation, parent cell line; type: cell-based; details: Homo sapiens; K562 cells
Text: (§2) 2. The multidrug resistance cell line K562/A02 and its parent K562 cell line were used to evaluate the anti-multidrug resistance of the CPT-4 active metabolite.

[4] = tested on: multidrug resistance cell line K562/A02; assay: Anti-multidrug resistance evaluation, multidrug resistance cell line; type: cell-based
Text: as §2

[5] = intravenously, three times per week

In the case of CCc1c2c(nc3ccc(O)cc13)-c1cc3c(c(=O)n1C2)COC(=O)[C@]3(O)CC [SN38], the IC50 (A549) is reported as 5.9 ± 1.61 nM, the IC50 (BEL-7402; BEL-7402) is reported as 136 ± 34.7 nM and the IC50 (HCT-15) is reported as 6.13 ± 4.07 nM. The IC50 (HL-60) was 6.7 ± 1.26 nM, the IC50 (HO-8910) was 1120 ± 171 nM and the IC50 (MCF-7; read-out: IC50(mean ± SD)) was 73 ± 15.6 nM. It also gave an IC50 (MDA-MB-435) of 3.42 ± 1.53 nM, an IC50 (MDA-MB-468) of 95.6 ± 36.9 nM and an IC50 (MKN-28) of 303 ± 56 nM. It also gave an IC50 (NCI-H23) of 234 ± 116 nM, an IC50 (SGC-7901) of 465 ± 75.3 nM and an IC50 (SMMC-7721) of 379 ± 66.4 nM. It also gave an IC50 (HCT-116) of 12.9 ± 5.4 nM and an IC50 [1] of 218 nM.

C=CCc1c(OC(=O)N2CCC(N3CCCCC3)CC2)ccc2nc3c(cc12)Cn1c-3cc2c(c1=O)COC(=O)[C@]2(O)CC [CPT-4, 10-((4′-piperidylpiperidine)carbonyloxy)-9-allylcamptothecin] was tested, and the “Body weight (g) At the beginning” value ([2]; 3.75 mg/kg) was 17.8 g, the “Body weight (g) At the end” value ([2]; 3.75 mg/kg) was 19.3 g and the RTV ([2]; 3.75 mg/kg) was 19 ± 5.5. For the same compound, the “T/C (%)” value ([2]; 3.75 mg/kg) was 41.4%, the “TV (mm^3) d0” value ([2]; 3.75 mg/kg) was 104 ± 22 mm^3 and the “TV (mm^3) d20” value ([2]; 3.75 mg/kg) was 1931 ± 533 mm^3. For the same compound, the “Body weight (g) At the beginning” value ([2]; 7.5 mg/kg) was 17.5 g, the “Body weight (g) At the end” value ([2]; 7.5 mg/kg) was 19.3 g and the RTV ([2]; 7.5 mg/kg) was 14 ± 5.5. For the same compound, the “T/C (%)” value ([2]; 7.5 mg/kg) was 31.4%, the “TV (mm^3) d0” value ([2]; 7.5 mg/kg) was 108 ± 61 mm^3 and the “TV (mm^3) d20” value ([2]; 7.5 mg/kg) was 1153 ± 172 mm^3. For the same compound, the “Body weight (g) At the beginning” value ([2]; 15 mg/kg) was 17.3 g, the “Body weight (g) At the end” value ([2]; 15 mg/kg) was 17.5 g and the RTV ([2]; 15 mg/kg) was 0.4 ± 0.7. For the same compound, the “T/C (%)” value ([2]; 15 mg/kg) was 0.88%, the “TV (mm^3) d0” value ([2]; 15 mg/kg) was 106 ± 28 mm^3 and the “TV (mm^3) d20” value ([2]; 15 mg/kg) was 55 ± 99 mm^3. The “inhibition of growth of tumor xenografts” value [2, 5] was “can significantly inhibit the growth of tumor xenografts”, the “xenograft growth inhibition compared with CPT-11” value [2, 5] was “equivalent to that of CPT-11” and the “Body weight (g) At the beginning” value ([3]; 3.75 mg/kg) was 20.2 g. The “Body weight (g) At the end” value ([3]; 3.75 mg/kg) was 17.0 g, the RTV ([3]; 3.75 mg/kg) was 8.4 ± 2.0 and the “T/C (%)” value ([3]; 3.75 mg/kg) was 18.9%. The “TV (mm^3) d0” value ([3]; 3.75 mg/kg) was 92 ± 27 mm^3, the “TV (mm^3) d21” value ([3]; 3.75 mg/kg) was 720 ± 75 mm^3 and the “Body weight (g) At the beginning” value ([3]; 7.5 mg/kg) was 19.5 g. The “Body weight (g) At the end” value ([3]; 7.5 mg/kg) was 17.2 g, the RTV ([3]; 7.5 mg/kg) was 3.8 ± 2.2 and the “T/C (%)” value ([3]; 7.5 mg/kg) was 8.31%. For the same compound, the “TV (mm^3) d0” value ([3]; 7.5 mg/kg) was 94 ± 30 mm^3, the “TV (mm^3) d21” value ([3]; 7.5 mg/kg) was 289 ± 108 mm^3 and the “Body weight (g) At the beginning” value ([3]; 15 mg/kg) was 20.3 g. The “Body weight (g) At the end” value ([3]; 15 mg/kg) was 17.8 g, the RTV ([3]; 15 mg/kg) was 1.8 ± 0.5 and the “T/C (%)” value ([3]; 15 mg/kg) was 3.99%. The “TV (mm^3) d0” value ([3]; 15 mg/kg) was 100 ± 20 mm^3, the “TV (mm^3) d21” value ([3]; 15 mg/kg) was 172 ± 51 mm^3 and the “inhibition of growth of tumor xenografts” value [3, 5] was “can significantly inhibit the growth of tumor xenografts”. For the same compound, the “xenograft growth inhibition compared with CPT-11” value [3, 5] was “equivalent to that of CPT-11”.

In the case of CCc1c2c(nc3ccc(OC(=O)N4CCC(N5CCCCC5)CC4)cc13)-c1cc3c(c(=O)n1C2)COC(=O)[C@]3(O)CC [CPT-11, Irinotecan], the “Body weight (g) At the beginning” value ([2]; 15 mg/kg) is reported as 18.2 g, the “Body weight (g) At the end” value ([2]; 15 mg/kg) is reported as 18.7 g and the RTV ([2]; 15 mg/kg) is reported as 0.5 ± 0.5. For the same compound, the “TV (mm^3) d0” value ([2]; 15 mg/kg) was 121 ± 34 mm^3, the “TV (mm^3) d20” value ([2]; 15 mg/kg) was 55 ± 39 mm^3 and the “Body weight (g) At the end” value ([3]; 15 mg/kg) was 18.3 g. The RTV ([3]; 15 mg/kg) was 1.9 ± 1.1, the “TV (mm^3) d0” value ([3]; 15 mg/kg) was 101 ± 60 mm^3 and the “TV (mm^3) d21” value ([3]; 15 mg/kg) was 171 ± 86 mm^3.

CC[C@@]1(O)C(=O)OCc2c1cc1n(c2=O)Cc2cc3c([N+](=O)[O-])cccc3nc2-1 [9NC, 9-nitrocamptothecin] was tested, and the IC50 (A549) was 31.9 ± 3.72 nM, the IC50 (BEL-7402; BEL-7402) was 58.8 ± 10.7 nM and the IC50 (HCT-15) was 9.59 ± 0.48 nM. It also gave an IC50 (HL-60) of 20.6 ± 2.56 nM, an IC50 (HO-8910) of 227 ± 40.8 nM and an IC50 (MCF-7; read-out: IC50(mean ± SD)) of 62.6 ± 19.8 nM. For the same compound, the IC50 (MDA-MB-435) was 18.5 ± 6.14 nM, the IC50 (MDA-MB-468) was 64.9 ± 29.6 nM and the IC50 (MKN-28) was 116 ± 6.48 nM. The IC50 (NCI-H23) was 70.3 ± 14.6 nM, the IC50 (SGC-7901) was 98 ± 6.87 nM and the IC50 (SMMC-7721) was 1380 ± 25 nM. It also gave an IC50 (HCT-116) of 13.7 ± 1.4 nM and an IC50 [1] of 167 nM.

With COc1cccc2c1C(=O)c1c(O)c3c(c(O)c1C2=O)C[C@@](O)(C(=O)CO)C[C@@H]3O[C@H]1C[C@H](N)[C@H](O)[C@H](C)O1 [adriamycin] the IC50 (K562 cell line) was 493 nM, the IC50 ([4]; Homo sapiens, K562/A02 cells) was 69100 nM and the “Resistance Factor (RF)” value ([4]; K562/A02 versus K562) was 140.24.

CC[C@@]1(O)C(=O)OCc2c1cc1n(c2=O)Cc2cc3c(CN(C)C)c(O)ccc3nc2-1 [TPT, Topotecan] gave an IC50 (A549; Homo sapiens) of 28.1 ± 6.8 nM, an IC50 (BEL-7402; Homo sapiens, Bel-7402) of 420 ± 79.7 nM and an IC50 (HCT-15; Homo sapiens) of 14.4 ± 4.41 nM. The IC50 (HL-60; Homo sapiens) was 23.3 ± 1.32 nM, the IC50 (HO-8910) was 1380 ± 44.4 nM and the IC50 (MCF-7; Homo sapiens, MCF7, read-out: IC50(mean ± SD)) was 387 ± 45.6 nM. It also gave an IC50 (MDA-MB-435; Homo sapiens) of 49.7 ± 6.05 nM, an IC50 (MDA-MB-468; Homo sapiens) of 176 ± 97.5 nM and an IC50 (MKN-28; Homo sapiens) of 412 ± 188 nM. It also gave an IC50 (NCI-H23; Homo sapiens) of 122 ± 36.3 nM, an IC50 (SGC-7901; Homo sapiens) of 489 ± 96.5 nM and an IC50 (SMMC-7721; Homo sapiens) of 1380 ± 172 nM. The IC50 (HCT-116; Homo sapiens) was 38 ± 2.19 nM and the IC50 [1] was 379 nM.
